This assay has as its target T1, glutaminase (GAC) (Homo sapiens, UniProt O94925).
T1 sequence (O94925 55-598 isoform O94925-3 limits assumed): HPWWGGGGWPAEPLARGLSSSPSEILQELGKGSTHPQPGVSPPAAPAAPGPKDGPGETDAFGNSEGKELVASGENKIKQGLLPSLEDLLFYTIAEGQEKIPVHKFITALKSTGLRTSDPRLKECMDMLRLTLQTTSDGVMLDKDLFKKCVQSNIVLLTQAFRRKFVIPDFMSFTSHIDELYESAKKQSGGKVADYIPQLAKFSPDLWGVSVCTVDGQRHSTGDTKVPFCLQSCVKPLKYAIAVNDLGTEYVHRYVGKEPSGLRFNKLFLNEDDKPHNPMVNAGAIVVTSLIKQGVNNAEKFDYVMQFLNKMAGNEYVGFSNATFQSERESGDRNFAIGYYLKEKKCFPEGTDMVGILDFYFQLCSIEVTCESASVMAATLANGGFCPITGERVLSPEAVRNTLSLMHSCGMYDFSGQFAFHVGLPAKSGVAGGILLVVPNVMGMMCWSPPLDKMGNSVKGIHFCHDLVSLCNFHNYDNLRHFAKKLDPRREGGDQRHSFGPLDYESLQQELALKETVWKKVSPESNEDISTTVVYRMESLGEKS
Put plainly: Glutaminase coupled endpoint enzymatic assay (Example A). The format is biochemical. Conditions: inhibition of glutaminase; assay of Example A or Example B. Summed up:
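Endpoint coupled assay: glutamate formed by GAC drives GDH NADH production, recycled by diaphorase reducing resazurin to fluorescent resorufin (Ex544/Em590) after SDS stop. Buffer pH 8.5 with phosphate; glutamine at Km; enzyme preincubated with compound 60 min at room temperature.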

Here are results for 31 molecules from patent US9029531B2 (Agios Pharmaceuticals, Inc., priority 2012, dated 2015).

Regarding `O=C(Cc1ccccc1)Nc1nnc([C@@H]2CCC[C@H](c3nnc(NC(=O)Cc4ccccc4)s3)C2)s1` [Compound 10, N,N′-(5,5′-((1R,3S)-cyclohexane-1,3-diyl)bis(1,3,4-thiadiazole-5,2-diyl))bis(2-phenylacetamide)], the IC50 was in the range of 1000 to 2000 nM. Take `O=C(Cc1cccc2c1OCO2)Nc1nnc([C@H]2CCC[C@H](c3nnc(NC(=O)Cc4cccc5c4OCO5)s3)C2)s1` [Compound 218, N,N′-(5,5′-((1S,3S)-cyclohexane-1,3-diyl)bis(1,3,4-thiadiazole-5,2-diyl))bis(2-(benzo[d][1,3]dioxol-4-yl)acetamide)]: the IC50 is below 100 nM. As for `O=C(Cc1cccc(Br)n1)Nc1nnc([C@H]2CCC[C@H](c3nnc(NC(=O)Cc4cccc(Br)n4)s3)C2)s1` [Compound 118, N,N′-(5,5′-((1S,3S)-cyclohexane-1,3-diyl)bis(1,3,4-thiadiazole-5,2-diyl))bis(2-(6-bromopyridin-2-yl)acetamide)], the figure is below 100 nM; as for `CC(=O)Nc1nnc([C@H]2CCC[C@H](c3nnc(NC(=O)Cc4ccccn4)s3)C2)s1` [Compound 93, N-(5-((1S,3S)-3-(5-acetamido-1,3,4-thiadiazol-2-yl)cyclohexyl)-1,3,4-thiadiazol-2-yl)-2-(pyridin-2-yl)acetamide], below 100 nM. Turning to `O=C(Cc1cccc(N2CC(F)(F)C2)c1)Nc1nnc([C@H]2CCC[C@H](c3nnc(NC(=O)Cc4cccc(N5CC(F)(F)C5)c4)s3)C2)s1` [Compound 269], the IC50 was 100 to 500 nM. With `O=C(Cc1ccc(N2CC(F)(F)C2)nc1)Nc1nnc([C@H]2CCC[C@H](c3nnc(NC(=O)Cc4ccc(N5CC(F)(F)C5)nc4)s3)C2)s1` [Compound 271, N,N′-(5,5′-((1S,3S)-cyclohexane-1,3-diyl)bis(1,3,4-thiadiazole-5,2-diyl))bis(2-(6-(3,3-difluoroazetidin-1-yl)pyridin-3-yl)acetamide)], the IC50 is below 100 nM. The molecule `O=C(Cc1ccccc1)Nc1nnc([C@@H]2CCC[C@@H](c3nnc(NC(=O)Cc4ccccc4)s3)C2)s1` [Compound 11, N,N′-(5,5′-((1R,3R)-cyclohexane-1,3-diyl)bis(1,3,4-thiadiazole-5,2-diyl))bis(2-phenylacetamide)] registered an IC50 below 100 nM. For the molecule `O=C(Cc1csc(N2CCOCC2)n1)Nc1nnc([C@H]2CCC[C@H](c3nnc(NC(=O)Cc4csc(N5CCOCC5)n4)s3)C2)s1` [Compound 276, N,N′-(5,5′-((1S,3S)-cyclohexane-1,3-diyl)bis(1,3,4-thiadiazole-5,2-diyl))bis(2-(2-morpholinothiazol-4-yl)acetamide)], the IC50 lay within 100 to 500 nM.

The molecule `O=C(Cc1ccncn1)Nc1nnc([C@H]2CCC[C@H](c3nnc(NC(=O)Cc4ccncn4)s3)C2)s1` [Compound 230, N,N′-(5,5′-((1S,3S)-cyclohexane-1,3-diyl)bis(1,3,4-thiadiazole-5,2-diyl))bis(2-(pyrimidin-4-yl)acetamide)] had an IC50 of 1000 to 2000 nM. With `O=C(Cc1ccccn1)Nc1nnc([C@@H]2CCC[C@H](c3nnc(NC(=O)Cc4ccccn4)s3)C2)s1` [Compound 102] the figure was 100 to 500 nM; with `N#Cc1cccc(CC(=O)Nc2nnc([C@H]3CCC[C@H](c4nnc(NC(=O)Cc5cccc(C#N)n5)s4)C3)s2)n1` [Compound 229, N,N′-(5,5′-((1S,3S)-cyclohexane-1,3-diyl)bis(1,3,4-thiadiazole-5,2-diyl))bis(2-(6-cyanopyridin-2-yl)acetamide)], below 100 nM. Consider `COc1cccc(CC(=O)Nc2nnc([C@H]3CCC[C@H](c4nnc(NC(C)=O)s4)C3)s2)c1` [Compound 90, N-(5-((1S,3S)-3-(5-acetamido-1,3,4-thiadiazol-2-yl)cyclohexyl)-1,3,4-thiadiazol-2-yl)-2-(3-methoxyphenyl)acetamide], for which the IC50 lay in the range of 100 to 500 nM. Turning to `N#Cc1ccccc1CC(=O)Nc1nnc(C2CCCCC(c3nnc(NC(=O)Cc4ccccc4C#N)s3)C2)s1` (stereo not shown) [Compound 127], the IC50 was in the range of 500 to 1000 nM. Take `O=C(Cc1cccc(N2CCC2)n1)Nc1nnc([C@H]2CCC[C@H](c3nnc(NC(=O)Cc4cccc(N5CCC5)n4)s3)C2)s1` [Compound 267, N,N′-(5,5′-((1S,3S)-cyclohexane-1,3-diyl)bis(1,3,4-thiadiazole-5,2-diyl))bis(2-(6-(azetidin-1-yl)pyridin-2-yl)acetamide)]: the IC50 was 100 to 500 nM. As for `O=C(Cc1ccccc1)Nc1nnc([C@@H]2CC[C@@H](c3nnc(NC(=O)Cc4ccccc4)s3)C2)s1` [Compound 19, N,N′-(5,5′-((1R,3R)-cyclopentane-1,3-diyl)bis(1,3,4-thiadiazole-5,2-diyl))bis(2-phenylacetamide)], the IC50 fell in the range of 100 to 500 nM.

As for `O=C(Cc1ccccc1)Nc1nnc([C@@H]2CC[C@H](c3nnc(NC(=O)Cc4ccccc4)s3)C2)s1` [Compound 18, N,N′-(5,5′-((1R,3S)-cyclopentane-1,3-diyl)bis(1,3,4-thiadiazole-5,2-diyl))bis(2-phenylacetamide)], the concentration for half-maximal inhibition (IC50) was in the range of 1000 to 2000 nM. As for `CC(=O)Nc1nnc([C@H]2CCC[C@H](c3nnc(NC(C)=O)s3)C2)s1` [Compound 12, N,N′-(5,5′-((1S,3S)-cyclohexane-1,3-diyl)bis(1,3,4-thiadiazole-5,2-diyl))diacetamide], the figure is 500 to 1000 nM; as for `O=C(Cc1ccccn1)Nc1nnc([C@@H]2CCC[C@H](c3nnc(NC(=O)Cc4ccccn4)s3)C2)s1` [Compound 20, N,N′-(5,5′-((1R,3S)-cyclohexane-1,3-diyl)bis(1,3,4-thiadiazole-5,2-diyl))bis(2-(pyridin-2-yl)acetamide)], 1000 to 2000 nM; as for `O=C(Cc1ccccc1)Nc1nnc(CC2CC(Cc3nnc(NC(=O)Cc4ccccc4)s3)C2)s1` (stereo not shown) [Compound 8, N,N′-(5,5′-(cyclobutane-1,3-diylbis(methylene))bis(1,3,4-thiadiazole-5,2-diyl))bis(2-phenylacetamide)], 100 to 500 nM.

Turning to `O=C(Cc1cccc(N2CCNCC2)c1)Nc1nnc([C@H]2CCC[C@H](c3nnc(NC(=O)Cc4cccc(N5CCNCC5)c4)s3)C2)s1` [Compound 263, N,N′-(5,5′-((1S,3S)-cyclohexane-1,3-diyl)bis(1,3,4-thiadiazole-5,2-diyl))bis(2-(3-(piperazin-1-yl)phenyl)acetamide)], the IC50 is below 100 nM. Molecule `CCN(CC)c1cccc(CC(=O)Nc2nnc([C@H]3CCC[C@H](c4nnc(NC(=O)Cc5cccc(N(CC)CC)c5)s4)C3)s2)c1` [Compound 235, N,N′-(5,5′-((1S,3S)-cyclohexane-1,3-diyl)bis(1,3,4-thiadiazole-5,2-diyl))bis(2-(3-(diethylamino)phenyl)acetamide)] displayed an IC50 of 500 to 1000 nM. `COc1ccc(CC(=O)Nc2nnc(C3CCC(c4nnc(NC(=O)Cc5ccc(OC)cc5)s4)C3)s2)cc1` (stereo not shown) [Compound 109] came in with an IC50 of 100 to 500 nM. `O=C(Cc1cccc2[nH]ccc12)Nc1nnc([C@@H]2CCC[C@H](c3nnc(NC(=O)Cc4cccc5[nH]ccc45)s3)C2)s1` [Compound 25, N,N′-(5,5′-((1S,3R)-cyclohexane-1,3-diyl)bis(1,3,4-thiadiazole-5,2-diyl))bis(2-(1H-indol-4-yl)acetamide)] yielded an IC50 of 500 to 1000 nM. For the molecule `O=C(Cc1ccccc1)Nc1nnc(C[C@H]2C[C@@H]2Cc2nnc(NC(=O)Cc3ccccc3)s2)s1` (racemic) [Compound 1, N,N′-(5,5′-(trans-cyclopropane-1,2-diylbis(methylene))bis(1,3,4-thiadiazole-5,2-diyl))bis(2-phenylacetamide)], the IC50 was 100 to 500 nM.

Regarding `O=C(Cc1cccs1)Nc1nnc(C[C@H]2C[C@@H]2Cc2nnc(NC(=O)Cc3cccs3)s2)s1` (racemic) [Compound 6, N,N′-(5,5′-(trans-cyclopropane-1,2-diylbis(methylene))bis(1,3,4-thiadiazole-5,2-diyl))bis(2-(thiophen-2-yl)acetamide)], the IC50 was in the range of 100 to 500 nM. Regarding `COc1ccccc1CC(=O)Nc1nnc([C@@H]2CCCC[C@H](c3nnc(NC(=O)Cc4ccccc4OC)s3)C2)s1` [Compound 125], the IC50 lay within 1000 to 2000 nM.

Take `O=C(Cc1cccc(OC(F)(F)F)c1)Nc1nnc([C@H]2CCC[C@H](c3nnc(NC(=O)Cc4cccc(OC(F)(F)F)c4)s3)C2)s1` [Compound 219, N,N′-(5,5′-((1S,3S)-cyclohexane-1,3-diyl)bis(1,3,4-thiadiazole-5,2-diyl))bis(2-(3-(trifluoromethoxy)phenyl)acetamide)]: the IC50 lay within 1000 to 2000 nM. As for `N#Cc1cccc(CC(=O)Nc2nnc(C3CCC(c4nnc(NC(=O)Cc5cccc(C#N)c5)s4)C3)s2)c1` (stereo not shown) [Compound 97], the IC50 was in the range of 100 to 500 nM. `O=C(Cc1cccc([N+](=O)[O-])c1)Nc1nnc(C2CCC(c3nnc(NC(=O)Sc4cccc([N+](=O)[O-])c4)s3)C2)s1` (stereo not shown) [Compound 110] registered an IC50 of 100 to 500 nM.

`Cn1cc(CC(=O)Nc2nnc([C@@H]3CCC[C@H](c4nnc(NC(=O)Cc5cn(C)c6ccccc56)s4)C3)s2)c2ccccc21` [Compound 15, N,N′-(5,5′-((1R,3S)-cyclohexane-1,3-diyl)bis(1,3,4-thiadiazole-5,2-diyl))bis(2-(1-methyl-1H-indol-3-yl)acetamide)] yielded an IC50 of 500 to 1000 nM. `Nc1ccc(CC(=O)Nc2nnc([C@H]3CCC[C@H](c4nnc(NC(=O)Cc5ccc(N)cc5)s4)C3)s2)cc1` [Compound 239, N,N′-(5,5′-((1S,3S)-cyclohexane-1,3-diyl)bis(1,3,4-thiadiazole-5,2-diyl))bis(2-(4-aminophenyl)acetamide)] returned an IC50 below 100 nM.

The IC50 is the concentration that gives 50% inhibition.
